For one data set, the target named is T1, Nav 1.5 channel (Homo sapiens, UniProt Q14524).
T1 construct: expressed in transfected cells; host or cells: HEK cells
Briefly: Test Example 13: Nav test. Format: cell-based. The settings on record: HEK cells expressing Nav 1.5 channel, INa, whole cell patch clamp, relative to vehicle. An excerpt:
Test Example 13: Nav Test
For the purpose of assessing proarrhythmic risk of the compound of the present invention, effects of the compound of the present invention on Na^+ current (INa), which plays an important role in the myocardial depolarization process, was studied using HEK cells expressing Voltage gated sodium channel (Nav 1.5 channel) encoded by SCNSA gene.
After a cell was retained at a membrane potential of −100 mV by the whole cell patch clamp method using an automated patch clamp system (QPatch; Sophion Bioscience A/S), INa induced by depolarization pulse stimulation at −10 mV for 20 milliseconds was recorded. An extracellular fluid (NaCl: 145 mmol/L, KCl 4 mmol/L, CaCl2: 2 mmol/L, MgCl2: 1 mmol/L, glucose: 10 mmol/L, HEPES (4-(2-hydroxyethyl)-1-piperazineethanesulfonic acid): 10 mmol/L, tetraethylammonium hydroxide (TEA): 10 mmol/L, pH=7.4) adjusted to 0.3% with dimethyl sulfoxide was used as a vehicle to apply the vehicle and the extracellular fluid containing the compound of the present invention dissolved at a concentration of interest to the cells under conditions of room temperature for 5 minutes or longer. From the obtained INa, the absolute value of the maximum peak current based on the current value at the membrane potential where the cells have been kept was measured using analytical software (QPatch Assay software; Sophion Bioscience A/S). The ratio of the maximum peak current at the time of applying the compound of the present invention to the maximum peak current at the time of applying the vehicle and the electric charge amount at the time of applying the compound of the present invention with respect to the electric charge amount at the time of applying vehicle were calculated, and the influence of the compound of the present invention on INa was evaluated.

Data set [1] has as its system HIV mutant strains (E92Q/E138T/G140S/Q148H). Nature of the data set: Test Example 2: Resistance evaluation test (HeLa-CD4 cells, wild and mutant strain). The class given is cell-based. Conditions: 3 days. On the procedure:
Test Example 2: Resistance Evaluation Test
Serial dilutions of a test sample were prepared in a 96-well microplate (50 μL/well). 2.5×10^5 cells/mL of a HeLa-CD4 cell suspension was dispensed at 100 μL/well to the plate containing the test sample. Then, an HIV virus solution (wild strain and mutant strain) was dispensed at 50 μL/well. The plate was mixed with a plate mixer and cultured for 3 days in a CO2 incubator. The culture supernatant in each well was removed by suction. A cell lysis buffer was dispensed at 100 μL/well, and the plate was frozen in a freezer (−80° C.). The plate frozen in a freezer was thawed at room temperature, then mixed with a plate mixer, and centrifuged at 1,200 rpm for 5 minutes. Beta-Glo Reagent was dispensed at 20 μL/well to a 384-well microplate, 2 μL of the supernatant of each well (diluted as necessary) of the plate after centrifugation was added, and then the mixture was reacted at room temperature for about 30 minutes. The amount of luminescence of the plate after the reaction was measured with a microplate reader. A 50% HIV inhibitory concentration (EC50) was determined from a concentration-dependent curve using the following 4 parameter logistic curve fitting model. y=A+((B−A)/(1+((C/x)^D))) • A=minimum rate of inhibition (negative control, 0%) • B=maximum rate of inhibition (positive control, 100%) • C=compound concentration at an inflection point • D=slope coefficient • x=compound concentration • y=rate of inhibition (%)
The degree of resistance (fold change (FC)) of each mutant strain was calculated according to the following expression. • FC=EC50 of the mutant strain/EC50 of the wild strain (Results)

For data set [2], the system named is HIV. Briefly: Test Example 1: Anti-HIV activity (MT-4 cells, CellTiter-Glo). The class given is cell-based. The settings on record: Human immunodeficiency virus 1, MT4, 96 h, 4 days culture, CellTiter-Glo luminescence, read-out: EC50 (50% HIV inhibitory concentration). On the procedure:
Test Example 1: Anti-HIV Activity
Serial dilutions of a test sample were prepared in a 384-well microplate by a dispensing machine. 6.25×10^4 cells/mL of a MT-4 cell suspension was dispensed at 20 μL/well to the plate containing the test sample. Then, an HIV virus solution was dispensed at 20 μL/well. The plate was mixed with a plate mixer and cultured for 4 days in a CO2 incubator. On day 4 of culture, CellTiter-Glo or CellTiter-Glo 2.0 was dispensed at 20 μL/well. The plate was reacted while being stirred with the plate mixer at room temperature for about 15 minutes. The amount of luminescence of the plate after the reaction was measured with a microplate reader. A 50% HIV inhibitory concentration (EC50) was determined from a concentration-dependent curve using the following 4 parameter logistic curve fitting model. y=A+((B−A)/(1+((C/x)^D))) • A=minimum rate of inhibition (negative control, 0%) • B=maximum rate of inhibition (positive control, 100%) • C=compound concentration at an inflection point • D=slope coefficient • x=compound concentration • y=rate of inhibition (%) (Results)

Data set [3] can be described thus: Test Example 6: Clearance evaluation test. Format: in vivo, Rats. Conditions: plasma, 1 umol/kg, rat, intravenous 1 μmol/kg; for half-life: read-out: Elimination half-life (t½) (converted); for clearance: read-out: Total body clearance (CLtot). An excerpt:
Test Example 6: Clearance Evaluation Test Experimental Material and Method (1) Animals used: Rats were used. (2) Breeding conditions: The rats were allowed to freely take solid food and sterilized tap water. (3) Dose and grouping setting: A predetermined dose was intravenously administered. Groups were set as follows: Intravenous administration: 1 μmol/kg (n=2) (4) Preparation of dosing solution: The test sample was solubilized using a solvent of dimethyl sulfoxide/propylene glycol=1/1 and administered. (5) Administration method: The test sample was administered to the tail vein through a syringe with an injection needle. (6) Evaluation item: Blood was collected over time, and the concentration of the compound of the present invention in plasma was measured using LC/MS/MS. (7) Statistical analysis: Total body clearance (CLtot) and elimination half-life (t½) were calculated as to change in the concentration of the compound of the present invention in plasma by the moment analysis method.

Data set [4] can be described thus: Test Example 7: Metabolism stability test. Format: in vitro ADME. The settings on record: human liver microsomes 0.5 mg protein/mL, 30 minutes, 37° C., NADPH, compound concentration 0.5 μmol/L. On the procedure: Test Example 7: Metabolism Stability Test Commercially available pooled human liver microsomes were reacted with the compound of the present invention for a given time. A residual rate was calculated by the comparison between the reacted sample and an unreacted sample to evaluate the degree at which the compound of the present invention was metabolized in the liver. The compound was reacted at 37° C. for 0 minutes or 30 minutes in the presence of 1 mmol/L NADPH in 0.2 mL of a buffer solution (50 mmol/L Tris-HCl pH 7.4, 150 mmol/L potassium chloride, and 10 mmol/L magnesium chloride) containing 0.5 mg protein/mL of the human liver microsomes (oxidative reaction). After the reaction, 50 μL of the reaction solution was added to 100 μL of a solution of methanol/acetonitrile=1/1 (v/v), and the mixture was mixed and centrifuged at 3000 rpm for 15 minutes. The compound of the present invention in the centrifugation supernatant was quantified by LC/MS/MS or solid-phase extraction (SPE)/MS. The amount of the compound of the present invention remaining after the reaction was calculated with the amount of the compound at 0 minutes of the reaction defined as 100%.

For data set [5], the system named is HIV. Nature of the data set: Test Example 14: Anti-HIV activity evaluation test in presence of human serum protein. The class given is cell-based. Conditions: MT-4 cells; PS=4×(EC50 with 25% human serum protein/EC50 without); 100% extrapolated value. Here is the method: Test Example 14: Anti-HIV Activity Evaluation Test in Presence of Human Serum Protein
Serial dilutions of a test sample were prepared in a 384-well microplate by a dispensing machine. A human serum protein solution (human serum protein concentration 50%) was dispensed at 20 μL/well to a 384-well microplate containing the test sample and left to stand still at room temperature for 1 hour. A culturing solution was dispensed at 20 μL/well to a plate for the absence of serum. 1 mL of 3.0×10^6 cells/mL of MT-4 cells and a 300 μL HIV virus solution were mixed and reacted at 37° C. for 1 hour. After the reaction, the cell suspension was centrifuged to discard the supernatant, the infected cells were dispersed in 40 mL of a culturing solution and the resultant solution was dispensed at 20 μL/well to a 384-well microplate containing the test sample and the human serum protein (human serum protein final concentration: 25%). The plate was mixed with a plate mixer and cultured for 4 days in a CO2 incubator. On day 4 of culture, CellTiter-Glo or CellTiter-Glo 2.0 was dispensed at 20 μL/well. The plate was reacted while being stirred with the plate mixer at room temperature for about 15 minutes. The amount of luminescence of the plate after the reaction was measured with a microplate reader. […]
The potency shift (PS) was calculated on the basis of the following calculation formula. […]

Another data set has as its target T2, CYP3A4 (Homo sapiens, UniProt P08684).
T2 construct: pooled human liver microsomes, 0.5 mg/mL for the prereaction; from tissue; host or cells: pooled human liver microsomes
Briefly: Test Example 4: CYP3A4 (MDZ) MBI test. Format: in vitro ADME. Conditions: pooled human liver microsomes, midazolam 1-hydroxylation, IC 0 min preincubation/IC 30-min preincubation. Here is the method: Test Example 4: CYP3A4 (MDZ) MBI Test
This test as to the inhibition of CYP3A4 by the compound of the present invention is to evaluate mechanism based inhibition (MBI) ability from enhancement in inhibitory effect, caused by a metabolism reaction, of the compound of the present invention. CYP3A4 inhibition was evaluated using pooled human liver microsomes by 1-hydroxylation reaction of midazolam (MDZ) as a marker reaction. […]
The pooled human liver microsomes and a solution of the compound of the present invention were added according to the recipe of the prereaction described above into a K-Pi buffer solution (pH 7.4) as a prereaction solution in a 96-well plate. […] After centrifuged at 3000 rpm for 15 minutes, 1-hydroxymidazolam in the supernatant was quantified by LC/MS/MS.
Only a solvent DMSO used for dissolving the compound was added to the reaction solution instead of the compound of the present invention, and the mixture was used as a control (100%). Remaining activity (%) at the time of the addition of the compound of the present invention at each concentration was calculated, and IC was calculated by inverse estimation based on a logistic model using the concentrations and the rates of suppression. A shifted IC value is calculated from IC from the 0 min preincubation/IC from the 30-min preincubation. […]

T1 sequence (Q14524 whole entry): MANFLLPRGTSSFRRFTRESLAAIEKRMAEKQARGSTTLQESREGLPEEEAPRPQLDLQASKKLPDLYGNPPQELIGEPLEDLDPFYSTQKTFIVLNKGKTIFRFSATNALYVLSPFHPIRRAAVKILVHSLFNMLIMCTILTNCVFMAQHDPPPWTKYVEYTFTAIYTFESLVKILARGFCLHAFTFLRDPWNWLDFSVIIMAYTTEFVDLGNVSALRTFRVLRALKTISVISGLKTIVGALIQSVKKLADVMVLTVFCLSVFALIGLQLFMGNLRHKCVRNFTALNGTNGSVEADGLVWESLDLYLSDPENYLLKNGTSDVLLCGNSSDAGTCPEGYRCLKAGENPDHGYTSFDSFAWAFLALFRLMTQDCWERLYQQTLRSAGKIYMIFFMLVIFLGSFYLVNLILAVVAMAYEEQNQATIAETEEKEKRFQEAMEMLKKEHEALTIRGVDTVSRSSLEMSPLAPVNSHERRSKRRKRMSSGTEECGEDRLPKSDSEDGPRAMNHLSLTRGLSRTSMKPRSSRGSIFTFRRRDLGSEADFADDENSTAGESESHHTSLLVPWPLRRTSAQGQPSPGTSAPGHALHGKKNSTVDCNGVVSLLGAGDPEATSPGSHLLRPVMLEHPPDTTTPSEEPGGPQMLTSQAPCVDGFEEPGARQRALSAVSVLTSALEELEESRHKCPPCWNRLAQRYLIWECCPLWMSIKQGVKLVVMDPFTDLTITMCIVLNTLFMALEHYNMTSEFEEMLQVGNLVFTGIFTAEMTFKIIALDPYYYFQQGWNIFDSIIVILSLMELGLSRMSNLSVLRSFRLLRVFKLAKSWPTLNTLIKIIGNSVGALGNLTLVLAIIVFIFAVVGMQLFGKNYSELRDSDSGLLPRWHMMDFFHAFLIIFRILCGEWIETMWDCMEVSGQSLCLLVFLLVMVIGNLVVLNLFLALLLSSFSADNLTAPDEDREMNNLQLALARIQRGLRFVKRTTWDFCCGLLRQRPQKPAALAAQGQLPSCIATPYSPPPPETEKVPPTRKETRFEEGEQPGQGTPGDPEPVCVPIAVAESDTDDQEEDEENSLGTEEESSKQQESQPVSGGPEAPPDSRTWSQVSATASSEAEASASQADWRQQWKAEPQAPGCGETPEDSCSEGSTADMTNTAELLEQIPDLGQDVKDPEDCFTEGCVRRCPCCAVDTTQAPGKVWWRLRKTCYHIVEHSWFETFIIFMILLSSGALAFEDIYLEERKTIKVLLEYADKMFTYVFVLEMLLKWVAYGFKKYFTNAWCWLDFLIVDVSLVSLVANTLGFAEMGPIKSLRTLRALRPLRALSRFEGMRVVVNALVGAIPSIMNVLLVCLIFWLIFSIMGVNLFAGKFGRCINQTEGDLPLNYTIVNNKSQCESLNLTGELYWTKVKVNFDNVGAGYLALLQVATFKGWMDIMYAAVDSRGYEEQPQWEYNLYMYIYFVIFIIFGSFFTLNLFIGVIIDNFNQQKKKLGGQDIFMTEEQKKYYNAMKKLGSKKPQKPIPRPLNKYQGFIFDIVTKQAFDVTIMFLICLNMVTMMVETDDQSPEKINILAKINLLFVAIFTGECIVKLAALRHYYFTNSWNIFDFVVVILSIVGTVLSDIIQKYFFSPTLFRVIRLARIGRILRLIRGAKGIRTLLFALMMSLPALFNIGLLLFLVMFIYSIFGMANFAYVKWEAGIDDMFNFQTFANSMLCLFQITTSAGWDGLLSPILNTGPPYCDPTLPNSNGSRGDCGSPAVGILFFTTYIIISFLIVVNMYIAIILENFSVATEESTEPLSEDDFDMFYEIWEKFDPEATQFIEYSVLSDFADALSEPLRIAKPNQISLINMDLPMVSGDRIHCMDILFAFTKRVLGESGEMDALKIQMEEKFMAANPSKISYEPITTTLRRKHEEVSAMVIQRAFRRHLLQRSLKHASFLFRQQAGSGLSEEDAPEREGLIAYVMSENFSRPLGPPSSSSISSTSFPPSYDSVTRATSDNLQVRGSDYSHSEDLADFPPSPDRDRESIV
T2 sequence (P08684 whole entry): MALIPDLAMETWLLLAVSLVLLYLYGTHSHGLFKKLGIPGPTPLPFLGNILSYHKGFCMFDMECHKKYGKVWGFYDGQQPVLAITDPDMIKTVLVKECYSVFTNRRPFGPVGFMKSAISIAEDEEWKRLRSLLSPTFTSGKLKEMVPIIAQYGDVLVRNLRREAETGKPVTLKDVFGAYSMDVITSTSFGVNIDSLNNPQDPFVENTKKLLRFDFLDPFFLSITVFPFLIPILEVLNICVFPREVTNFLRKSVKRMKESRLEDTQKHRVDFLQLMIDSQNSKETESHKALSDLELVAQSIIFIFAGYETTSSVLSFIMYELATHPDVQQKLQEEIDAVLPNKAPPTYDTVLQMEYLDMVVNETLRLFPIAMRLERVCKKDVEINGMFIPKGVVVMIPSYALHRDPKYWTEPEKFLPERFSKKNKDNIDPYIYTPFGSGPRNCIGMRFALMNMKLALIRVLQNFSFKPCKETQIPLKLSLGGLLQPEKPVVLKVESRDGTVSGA

Take `CCN1C(=O)c2c(O)c(=O)c(-c3nnc(Cc4ccc(F)cc4F)s3)cn2[C@H]2CCCC[C@H]21` [Compound I-017]: on Nav 1.5 channel, the “electric charge amount increase rate” value worked out at 133% and the “maximum current amount increase rate” value was 95.6%. Further, the “FC (fold change, degree of resistance) = EC50 of the mutant strain/EC50 of the wild strain” value in data set [1] is 6.0. Besides, the EC50 in the data set on HIV [2] was 4.2 nM. In data set [3], the half-life was 15.3 h and the clearance came to 4.27 mL/h/kg.

In the case of `CCN1C(=O)c2c(O)c(=O)c(-c3nnc(Cc4ccc(F)cc4F)s3)cn2[C@H]2CCC[C@H]21` [Compound I-020], in data set [4], the Remaining rate worked out at 74.6%. Besides, the “FC (fold change, degree of resistance) = EC50 of the mutant strain/EC50 of the wild strain” value in data set [1] is recorded as 7.7. Further, the “Potency shift (PS) in the presence of human serum protein” value with HIV [5] was 29. Moreover, the EC50 with HIV [2] turned out to be 5 nM.

For `CCN1C(=O)c2c(O)c(=O)c(C(=O)NCc3cccc(Cl)c3F)cn2[C@@H]2[C@H]1CCCC2(F)F` [Compound I-005], the “FC (fold change, degree of resistance) = EC50 of the mutant strain/EC50 of the wild strain” value in data set [1] is reported as 6.7. For the same compound, the “Potency shift (PS) in the presence of human serum protein” value with HIV [5] is given as 104. Besides, in the data set on HIV [2], the EC50 was determined as 1 nM. For the same compound, in data set [3], the half-life was 10.9 h and the clearance was determined as 7.02 mL/h/kg.

For the compound `CCN1C(=O)c2c(O)c(=O)c(-c3nnc(Cc4ccc(F)cc4F)s3)cn2[C@@H]2[C@H]1CCCC2(F)F` [Compound I-022], at Nav 1.5 channel, the “electric charge amount increase rate” value came to 137% and the “maximum current amount increase rate” value is 93.1%. For the same compound, the “Shifted IC grade (mechanism based inhibition)” value on CYP3A4 is listed as “(−) (shifted IC of 1.0 or less is graded as negative (−))”. Further, the EC50 with HIV [2] stood at 5.3 nM.

In data set [4], `CCN1C(=O)c2c(O)c(=O)c(C(=O)NCc3nccc(Cl)c3F)cn2[C@H]2CCCC[C@H]21` [Compound I-003] returned a Remaining rate of 91.7%. Besides, the EC50 in the data set on HIV [2] is 3.9 nM.

Source of the values: patent publication US12577241B2, “Polycyclic pyridopyrazine derivative” (Shionogi & Co., Ltd., priority 2019, dated 2026).
